Test system: washed human platelets, TRAP-induced aggregation
Test: In vitro test for inhibition of human platelet aggregation induced by TRAP
Format: cell-based
Conditions: 5 μM TRAP; washed human platelets; mean of n experiments; entries marked b measured with a Chronolog aggregometer, others with micro plate reader; read-out: Inhibition of TRAP (5 μM)-induced human platelet aggregation (IC50), mean
From the text: I.b. In vitro Test for Inhibition of Human Platelet Aggregation Induced by TRAP
Introduction: Addition of trombin receptor agonist peptide (TRAP) to washed human platelets (WPL) in vitro induces platelet aggregation. This aggregation can be determined by measuring the optical density of the WPL. The in vitro test described here is used to analyze the activity of a test compound to inhibit TRAP-induced aggregation of human platelets. A micro plate reader is used to measure the activity of several compounds simultaneously.
An alternative vehicle is 0.9% NaCl in MQ H2O. The compound solution (either in MQ H2O or 0.9% NaCl in MQ H2O) is further diluted in 0.9% NaCl in MQ H2O.
Free-flowing blood (at least 100 mL) is taken from a healthy volunteer and collected in 0.1 volume 3.8% sodium citrate. 2H2O in MQ H2O (w/v). The final concentration is 0.38% sodium citrate. The citrated blood is centrifuged at 1,600 N/kg (160 g) in Hettich Rotanta/AP centrifuge (750 rpm) at RT. After 15 min, centrifugation is discontinued with the brake turned off and the supernatant (=PRP) is collected. • 2. Washed platelets (WPL):
After adding freshly made 1 μL PGI2 solution per ml PRP, the suspension is centrifuged at 13,500 N/kg (1,350 g) for 10 min in a Hettich Rotanta/AP centrifuge (i.e., 2,800 rpm) at RT. After gentle resuspension of the pellet in the same volume of fresh Watson buffer containing 5 ng/mL PGI2, the suspension is centrifuged at 1,350 g (2,800 rpm) for 10 min at RT again. The final platelet pellet is resuspended in Watson buffer to give approx. 400,000±50,000 platelets/[…]. • 3. Watson buffer:
134 mM NaCl, 2.9 mM KCl, 12 mM NaHCO3, 0.34 mM Na2HPO4.2H2O, 1 mM MgCl2.6H2O, 5 mM Glucose and 5 mM HEPES in MQ H2O. The pH is adjusted to 7.4 with 1 M NaOH. • 4. Prostaglandin I2 (Sigma, P6188 powder):
The PGI2 stock solution of 1 mg/mL in 1 M KOH is stored in aliquots of 100 μL at −20° C. Immediately before use, a solution of 5 μg/mL in ice-cold 0.9% NaCl in MQ H2O is prepared. • 5. Human Fibrinogen (Kordia/ERL, art nr: FIB 2 powder):
0.5 g fibrinogen powder is dissolved in 50 mL MQ H2O under vacuum. This stock solution is stored in aliquots of 1 mL at −20° C. Before use, a solution of 0.5 mg/mL in saline is prepared.
Before use, a solution of 50 μM TRAP in 0.9% NaCl in MQ H2O is prepared. For each test, a fresh solution is made.
• 1. Sysmex cell counter model KX-21 • 2. Labsystems iEMS reader MF with a 405 nm filter, an orbital shaker set at 1,000 rpm and a constant temperature of 37° C. Absorptions are measured with the Labsystems iEMS program. • 3. Blood collection system 600 mL with needle, art nr P4203 (NPBI) • 4. 96 wells micro plates (Greiner Labortechnik) flat-bottom
Procedure: The WPL concentration is counted in a Sysmex blood cell counter and the suspension is diluted with Watson buffer to obtain a concentration of 400,000±50,000 plt/μL. Before use, WPL is allowed to stabilize at room temperature for at least 20 min but not longer than 3-4 hours.
TRAP-induced aggregation: 150 μL WPL is pipetted into a well of a micro plate. 15 μL test compound or vehicle and 15 μL fibrinogen solution is added and the micro plate is placed in the micro plate reader at 37° C. Then, the optical density (OD) is measured at 405 nm and after shaking for 2 min in the reader, the OD405 is measured again to verify the stability of the platelets (absence of spontaneous platelet aggregation). 20 μL of 50 μM TRAP is added and the OD405 is kinetically measured every min for 14 min at 405 nm. Between two measurements, the plate is shaking for 40 seconds at 1,000 rpm (FIG. 1). For determination of the IC50 of a test compound, each test compound is investigated in at least 2 experiments using WPL from different volunteers.
Evaluation of response: The mean OD of each concentration (including vehicle) is calculated at t=0 min and t=10 min. The percentage inhibition at each concentration is calculated using the formula: […]

IC50: 80 nM
Substance: Methyl O-2,3-di-O-methyl-4-O-<<12-N-<N-(3-keto-benzenesulfonyl)-4-O-{4-(4-piperidinyl)-butyl}-L-tyrosine>-12-aza-3,6,9-trioxa-dodecyl>>-6-O-sulfo-alpha-D-glucopyranosyl-(1->4)-O-2,3-di-O-methyl-beta-D-glucopyranuronosyl-(1->4)-O-2,3,6-tri-O-sulfo-alpha-D-glucopyranosyl-(1->4)-O-2,3-di-O-methyl-alpha-L-idopyranuronosyl-(1>4)-3-O-methyl-2,6-di-O-sulfo-alpha-D-glucopyranoside octakis sodium salt [XIV]

From patent US7576071B2, “Antithrombotic compound” (sanofi-aventis, priority 2004, dated 2009)
